The subject of the assay is LEFCH (Leptochloa chinensis). The assay can be described thus: Post-emergence action against LEFCH (greenhouse pot test, visual evaluation). Conditions: for pest or weed control at 50 g/ha: read-out: Action against LEFCH. Type of assay: in vivo. The protocol: The herbicidal activity of the active substances or active substance mixtures was evaluated visually from the treated variants in comparison with untreated control variants. In this connection, damage to and development of all plant parts above ground was included. The evaluation was carried out according to a percentage scale (100% action=all plants dead; 50% action=50% of the plants and green plant parts dead; 0% action=no recognizable action=as untreated control plot).
Seeds or root pieces of mono- and dicotyledonous weeds are placed in sandy clay soil in pots, covered with earth and secured in a greenhouse under good growing conditions (temperature, air humidity, water supply). Approximately three weeks after sowing, the test plants are treated with the compositions according to the invention. The compositions according to the invention formulated as wettable powders or as emulsion concentrates are sprayed, in spray application, on to the green plant parts in different dosages with a water application rate of 600 to 800 I/ha (corrected). Immediately up to a few days after application, the test receptacles accumulate water over the ground surface by up to 30 mm. With the water application (submerged application), on the other hand, the ground in the closed test receptacle is already covered with the paddy water up to 30 mm at the time of the application. The formulated active substances are here added directly to the paddy water. After an exposure time of the test plants in the greenhouse of an additional 3 to 4 weeks under optimum growing conditions, the effect of the preparations is evaluated visually in comparison with untreated controls. […] In this connection, actions of the combinations according to the invention which exceed the formal sum of the actions of the herbicides when applied individually are frequently observed. The values observed for the tests show, with suitable low dosages, an action of the combinations which lies above the expected values according to Colby.
If the observed activity values already exceed the formal sum of the values for the tests with individual applications, then they likewise exceed the expected value according to Colby, which is calculated according to the following formula and is likewise regarded as an indication of synergy (cf. S. R. Colby in Weeds, 15 (1967), pp. 20 to 22):
[formula] In this connection: • A, B=action of the component A or B in percent at a dosage of a or b grams ai/ha. • E=expected value in % at a dosage of a+b grams ai/ha.
The abbreviation LEFCH is the harmful plant Leptochloa chinensis.

[1] abbreviates: dosage 12.5 g/ha, single herbicide.
The mark [2] stands for this setting: dosage 50 g/ha, single herbicide.
Where [3] appears, read: Dinebra chinensis, dosage 50 g/ha, single herbicide.
Where [4] appears, read: dosage 2.5 g/ha, single herbicide.
The mark [5] stands for this setting: dosage 75 g/ha, single herbicide.

Read-outs that look alike come from different tables or passages of the source.

On to `CC(C)c1nn(C(=O)NC(C)(C)C)c(=O)n1N` [Compound B1, amicarbazone], for which the “Action against LEFCH” value under setting [1] was 10%. For `Nc1cc(Cl)nc(C(=O)O)c1Cl` [Compound B2, aminopyralid], the “Action against LEFCH” value (dosage 7.5 g/ha, single herbicide) was determined as 30%. Regarding `COC(=O)c1nc(C2CC2)nc(N)c1Cl` [Compound B3, aminocyclopyrachlor-methyl], the “Action against LEFCH” value under setting [2] was found to be 10%. As to `COc1cc(OC)nc(NC(=O)NS(=O)(=O)Nc2ccccc2C(=O)C2CC2)n1` [Compound B4, cyclosulfamuron], the pest or weed control at 50 g/ha under setting [3] came out at 20%.

Consider `Cc1ccc2c(c1)[C@H](Nc1nc(N)nc(C(C)F)n1)[C@@H](C)C2` (stereo partly shown) [Compound B5, indaziflam], for which, under setting [4], the “Action against LEFCH” value came to 25%.

`COCC(=O)OC(c1ncccc1S(=O)(=O)NC(=O)Nc1nc(OC)cc(OC)n1)C(C)F` (stereo not shown) [Compound B6, flucetosulfuron]: the “Action against LEFCH” value under setting [4] is reported as 20%.

For `CC(C)N(C(=O)n1cnn(-c2ccc(Cl)cc2Cl)c1=O)c1ccc(F)cc1F` [Compound B7, ipfencarbazone], the “Action against LEFCH” value under setting [2] came out at 25%.

For `C[C@@H](Oc1ccc(Oc2nc3ccc(Cl)cc3o2)cc1)C(=O)N(C)c1ccccc1F` [Compound B8, metamifop], under setting [5], the “Action against LEFCH” value is 15%. For `COc1cc(OC)nc(NC(=O)NS(=O)(=O)Nc2ccccc2C(=O)N(C)C)n1` [Compound B9, orthosulfamuron], the “Action against LEFCH” value (dosage 30 g/ha, single herbicide) is 40%. As to `COc1cnc(OC)n2nc(NS(=O)(=O)c3c(OCC(F)F)cccc3C(F)(F)F)nc12` [Compound B10, penoxsulam], the pest or weed control at 15 g/ha (Dinebra chinensis, dosage 15 g/ha, single herbicide) worked out at 20%. Regarding `CCc1cc(C)cc(CC)c1-c1c(OC(=O)C(C)(C)C)n2n(c1=O)CCOCC2` [Compound B11, pinoxaden], for the setting “Dinebra chinensis, dosage 10 g/ha, single herbicide”, the pest or weed control at 10 g/ha came out at 15%. Take `CCCc1ccc2nc(Cl)c(S(=O)(=O)NC(=O)Nc3nc(OC)cc(OC)n3)n2n1` [Compound B12, propyrisulfuron]: the “Action against LEFCH” value under setting [2] is 30%.

As for `C#CCN(C)c1c(C#N)cnn1-c1nn2c(c1Cl)CCCC2` [Compound B13, pyraclonil], the “Action against LEFCH” value under setting [5] is reported as 30%. As for `Cc1nn(C)c(O)c1C(=O)c1ccc(C(F)(F)F)cc1S(C)(=O)=O` [Compound B14, pyrasulfotole], the “Action against LEFCH” value under setting [1] was 30%. On to `COCc1cccc(C(O)c2nc(OC)cc(OC)n2)c1NS(=O)(=O)C(F)F` (stereo not shown) [Compound B15, pyrimisulfan], for which the “Action against LEFCH” value under setting [2] was 20%. On to `Cn1nc(C(F)(F)F)c(CS(=O)(=O)C2=NOC(C)(C)C2)c1OC(F)F` [Compound B17, pyroxasulfone], for which the pest or weed control at 7.5 g/ha (Dinebra chinensis, dosage 7.5 g/ha, single herbicide) came out at 15%. As to `COc1cc(OC)n2nc(NS(=O)(=O)c3c(C(F)(F)F)ccnc3OC)nc2n1` [Compound B18, pyroxsulam], for the setting “dosage 15 g/ha, single herbicide”, the “Action against LEFCH” value is recorded as 20%.

As for `CC(C)N(C)S(=O)(=O)NC(=O)c1cc(-n2c(=O)cc(C(F)(F)F)n(C)c2=O)c(F)cc1Cl` [Compound B19, saflufenacil], the pest or weed control at 3 g/ha (Dinebra chinensis, dosage 3 g/ha, single herbicide) worked out at 8%. Take `COc1cc(OC)nc(NC(=O)NS(=O)(=O)c2c(C3=NOCC(C)O3)c(Cl)nn2C)n1` (stereo not shown) [Compound B20, 3-chloro-N-[(4,6-dimethoxypyrimidin-2-yl)carbamoyl]-1-methyl-4-(5-methyl-5,6-dihydro-1,4,2-dioxazin-3-yl)-1H-pyrazole-5-sulfonamide]: under setting [3], the pest or weed control at 50 g/ha came out at 15%. As for `COC(=O)c1nc(-c2ccc(Cl)c(OC)c2F)cc(N)c1Cl` [Compound B22, methyl 4-amino-3-chloro-6-(4-chloro-2-fluoro-3-methoxyphenyl)pyridine-2-carboxylate], the pest or weed control at 50 g/ha (Dinebra chinensis) amounted to 10%. For `COCCOCc1nc(C(F)(F)F)ccc1C(=O)C1C(=O)C2CCC(C2)C1=O` (stereo not shown) [Compound B23, 3-({2-[(2-methoxyethoxy)methyl]-6-(trifluoromethyl)pyridin-3-yl}-carbonyl)bicyclo[3.2.1]octane-2,4-dione], the pest or weed control at 12.5 g/ha (Dinebra chinensis, dosage 12.5 g/ha, single herbicide) amounted to 25%. Take `CS(=O)(=O)c1ccc(C(=O)C2C(=O)CCCC2=O)c(Cl)c1COCC1CCCO1` (stereo not shown) [tefuryltrione]: the “Action against LEFCH” value under setting [2] is listed as 20%.

Values taken from patent US8728977B2, “Herbicidal combinations comprising tefuryltrione for use in rice crops” (Bayer Cropscience AG, priority 2009, dated 2014).
